Experimental data taken from patent US5840729A (priority 1995, dated 1998).
pKi: −log10 of the molar value. Where two headings read alike, the source gives them in different places. Values belong to the compound of their own block, whether it stands above or below them.

Key:
[1] = target: T1, adenosine A2 receptor (Rattus norvegicus, UniProt P30543); assay: A2 receptor affinity: displacement of [3H]NECA binding in rat brain striatum membranes; conditions: Table 1
T1 construct: tissue Charles River (animals); host or cells: striatal membranes of young male rats (C-D strain)
Method: See R. R. Bruns, et al., Characterization of the A-2Adenosine Receptor Labeled by [3H]NECA in Rat Striatal Membranes, Mol. Pharmacol., 29, 331-346 (1986). Young male rats (C-D strain), obtained from Charles River, were killed by decapitation and the brain was removed. Membranes for ligand binding were isolated from rat brain striatum. The tissue was homogenized in 20 vol ice-cold 50 mM Tris-HC1 buffer (pH 7.7) using a polytron (setting for 6 to 20 seconds). The homogenate was centrifuged at 50,000×g for 10 minutes at 4° C. The pellet was again homogenized in a polytron in 20 vol of buffer, and centrifuged as before. The pellet was finally resuspended in 40 vol of 50 mM Tris-HC1 (pH 7.7) per gram of original wet weight of tissue.
Incubations were carried out at 25° C. for 60 minutes. Each tube was filtered through GF/B glass fiber filters using a vacuum. The filters were rinsed two times with 5 ml of the ice-cold buffer. […] The filters were counted by liquid scintillation spectrometry.
Specific binding of [^3 H]NECA was measured as the excess over blanks run in the presence of 100 μM 2-chloroadenosine. Total membrane-bound radioactivity was about 2.5% of that added to the test tubes. […] Specific binding to membranes was about 50% of the total bound.

[2] = target: T2, adenosine A1 receptor (Rattus norvegicus, UniProt P25099)
T2 sequence (P25099 1-326): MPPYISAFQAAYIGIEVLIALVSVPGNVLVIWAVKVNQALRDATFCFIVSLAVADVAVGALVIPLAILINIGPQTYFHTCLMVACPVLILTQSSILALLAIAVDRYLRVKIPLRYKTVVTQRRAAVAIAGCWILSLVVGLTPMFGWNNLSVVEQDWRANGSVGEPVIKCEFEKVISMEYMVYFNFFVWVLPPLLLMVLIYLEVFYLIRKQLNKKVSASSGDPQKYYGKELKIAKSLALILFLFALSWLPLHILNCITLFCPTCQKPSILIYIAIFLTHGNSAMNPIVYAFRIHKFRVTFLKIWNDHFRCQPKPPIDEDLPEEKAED

[3] = test system: rats; assay: Water maze learning (scopolamine-induced impairment); format: in vivo, rat; conditions: for effect on scopolamine-induced learning impairment: water maze, summary statement; for reversal of scopolamine-induced impairment: scopolamine 1.2 mg/kg
Source text: In the water maze spatial learning model, rats are required to use distal spatial cues around a circular water tank to navigate to a hidden platform.
Rats were trained in a 120 -cm diameter water-filled tank to locate a hidden platform submerged just below the surface of the water. The location of the platform remained constant, but for each trial, the animal was required to swim from one of three different starting locations around the edge of the tank. There were no proximal cues in the tank, so the animal had to use a spatial mapping strategy using the distal cues around the room to navigate to the hidden platform. A computerized video tracking system allowed automated acquisition of the data. The animals were given 12 successive training trials during the single training day, using the methods of O. Buresova, et al., Differential Effects Of Cholinergic Blockade On Performance Of Rats In The Water Tank Navigation Task And In A Radial Water Maze, Behavioral Neuroscience, 100, 476-482 (1986). […] After the animal found or was placed on the platform, it was allowed to stay there for 30 seconds. The next trial commenced immediately following the 30 second stay on the platform. Latency to locate the platform was recorded for each trial.
Separate treatment groups of five animals each were run in each experiment. The VEH--VEH groups received vehicle (distilled water plus Tween) i.p. 40 minutes prior to the first trial and vehicle i.p. 20 min. prior to the first trial. The VEH-SCOP groups received vehicle i.p. at 40 minutes and scopolamine HBr i.p. at 20 minutes. The MDL-SCOP groups received (R)-1,3-dipropyl-8-(1-phenylpropyl)-xanthine or 3,7-dihydro-8[(R)-1-methyl-2-phenylethyl]1,3-dipropyl-1H-purine-2,6-dione i.p. at 40 minutes and scopolamine HBr i.p. at 20 minutes.
The latency scores for each animal were averaged into four blocks of three trials each (one trial from each starting location). A one-way ANOVA comparing the treatment groups was computed on the scores for each trial block. If the overall ANOVA was statistically significant, comparisons between individual treatment groups were made with Fisher's PLSD test.

[4] = test system: hippocampal CA1 neurons; assay: Hippocampal long-term potentiation, in vitro slice (CA1 population spike); format: cell-based, male Sprague-Dawley rats; conditions: for LTP stabilized level following tetanus / time course of LTP following tetanus: primed burst tetanus; for population spike before and after induction of LTP: hippocampal CA1 neurons
Method: Slices were prepared from male Sprague-Dawley rats. […] Briefly, the hippocampus was rapidly and gently dissected over ice. 400 μ Sections were made with a […] tissue chopper and incubated on the interface of 34° C. […] A recording electrode was placed in the CA1 region of the hippocampus and a stimulating electrode was positioned in the stratum radiatum of the CA3 region of this same slice. […] The signal form the CA1 cell body layer was amplified, filtered (1 Hz-4 KHz), and monitored on an oscilloscope. The evoked waveform was also digitized using a Computerscope A/D board (RC Electronics, Inc., Santa Barbara, Calif.) and stored for analysis using Neuroscope software (Levin and Associates, Denver, Colo.) running on an IBM-AT. In order to insure the viability of the slice, "minimal viability criteria" were established. […] Only preparations that met these three criteria were used. Twenty or more control population spikes were obtained to establish a baseline (at least 10 minutes). In most slices concentrated drug solutions were then diluted into the media for a 20 minute period to establish effects on the baseline population spike. […] One 100 μsec pulse was followed by 4 similar pulses 170, 180, 190, 200 msec later. Drug superfusion was continuous throughout the experiment. […] The compounds were dissolved in DMSO and diluted 1:400 into the perfusion media. […] Each pop spike waveform was digitized, stored, and analyzed by the Neuroscope software. Pop spike amplitude was determined for each waveform and these amplitudes were normalized to pre-tetanus levels. Results were expressed as percent change from this control level and plotted vs. time.

[5] = test system: animal models of learning and memory; conditions: G. Schingnitz et al. 1991; cited from earlier work
[6] = test system: Type III phosphodiesterase; assay: Type III phosphodiesterase activity; format: biochemical
[7] = test system: Type IV phosphodiesterase; assay: Type IV phosphodiesterase activity; format: biochemical
[8] = test system: A1 receptor; assay: A1 receptor mediated decrease in heart rate produced by adenosine in the anesthetized guinea pig; format: in vivo
[9] = test system: isolated guinea pig trachea; assay: Isolated guinea pig trachea, contraction produced by N6-cyclohexyl-adenosine; format: cell-based
[10] = target: T2, adenosine A1 receptor; assay: biochemical
[11] = target: T2, adenosine A1 receptor; assay: A1 receptor affinity: displacement of [3H]cyclohexyladenosine binding in rat brain membranes; conditions: Table 1; ratio of A2 Ki to A1 Ki (selectivity)
[12] = target: T2, adenosine A1 receptor; design: Male Sprague-Dawley rats were sacrificed by decapitation and the membranes were isolated from whole animal brains; from tissue; host or cells: whole brain membranes of male Sprague-Dawley rats; conditions: Dudley et al., 1992; Secrest et al.; cited from earlier work

T1 sequence (P30543 whole entry): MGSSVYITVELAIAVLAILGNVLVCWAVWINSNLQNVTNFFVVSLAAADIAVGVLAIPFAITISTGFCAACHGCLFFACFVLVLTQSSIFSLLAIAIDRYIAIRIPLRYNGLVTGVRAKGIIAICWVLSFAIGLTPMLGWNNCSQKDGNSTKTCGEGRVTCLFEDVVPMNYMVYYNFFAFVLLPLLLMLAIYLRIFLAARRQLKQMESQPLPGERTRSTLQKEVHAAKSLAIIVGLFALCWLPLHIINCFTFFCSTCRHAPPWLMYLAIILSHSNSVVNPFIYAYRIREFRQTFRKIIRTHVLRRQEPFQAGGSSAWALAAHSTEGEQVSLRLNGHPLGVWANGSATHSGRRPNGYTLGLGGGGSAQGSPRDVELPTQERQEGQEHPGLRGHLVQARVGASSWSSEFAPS

Compound: CCCn1c(=O)c2[nH]c(C3Cc4ccccc4C3)nc2n(CCC)c1=O (racemic) [3,7-Dihydro-8-(2-indanyl)-1,3-dipropyl-1H-purine-2,6-dione]
- pKi [1]: 5.08

Compound: CCCn1c(=O)c2[nH]c(C(CC)c3ccccc3)nc2n(CCC)c1=O (racemic) [3,7-dihydro-8-[(±)-phenylpropyl]-1,3-dipropyl-1H-purine-2,6-dione]
- A2/A1 [2]: 20

Compound: CCCn1c(=O)c2[nH]c(C3CCC(=O)C3)nc2n(CCC)c1=O (racemic) [KFM-19, reference compound]
- effect on scopolamine-induced learning impairment [3]: significantly antagonized
- synaptic transmission in the hippocampal slice [4]: enhanced synaptic transmission
- activity in other animal models of learning and memory [5]: reported to have activity

Compound: CCCn1c(=O)c2[nH]c([C@@H](CC)c3ccccc3)nc2n(CCC)c1=O [3,7-Dihydro-8-[(S)-1-phenylpropyl]1,3-dipropyl-1H-purine-2,6-dione]
- pKi [1]: 6.07
- A2/A1 [2]: 14
- pKi [10]: 7.22

Compound: CCCn1c(=O)c2[nH]c([C@H](CC)c3ccccc3)nc2n(CCC)c1=O [3,7-dihydro-8-[(R)-1-phenylpropyl]1,3-dipropyl-1H-purine-2,6-dione]
- pKi [1]: 5.45
- difference from VEH-SCOP group (latency), block 3 ([3]; 5 mg/kg i.p. plus scopolamine 1.2 mg/kg, p<0.05): differed from the VEH-SCOP group on block 3 (p<0.05)
- reversal of scopolamine-induced impairment ([3]; 5 mg/kg i.p.): reversed the scopolamine-induced impairment
- difference from VEH-SCOP group (latency), blocks 2 and 3 ([3]; 25 mg/kg i.p. plus scopolamine 1.2 mg/kg): differed from the VEH-SCOP group on blocks 2 and 3
- reversal of scopolamine-induced impairment ([3]; 25 mg/kg i.p.): reversed the scopolamine-induced impairment
- difference from VEH-VEH group (latency) ([3]; 5 and 25 mg/kg i.p. plus scopolamine 1.2 mg/kg): did not differ significantly from the VEH--VEH group
- effect on scopolamine-induced learning impairment [3]: significantly antagonized
- synaptic transmission in the hippocampal slice [4]: enhanced synaptic transmission
- LTP stabilized level following tetanus ([4]; 2.5 μm): 270%
- population spike before and after induction of LTP [4]: increased the basal population spike before and after induction of LTP
- time course of LTP following tetanus [4]: rose sharply and remained stable throughout the observation period
- pKi [2]: 7.63
- A2/A1 [11]: 153
- A1 antagonist potency and selectivity [12]: potent and selective A1 antagonists

Compound: CN1[C@@H]2C[C@@H](OC(=O)[C@H](CO)c3ccccc3)C[C@H]1[C@@H]1O[C@@H]12 [scopolamine, reference compound]
- VEH-SCOP group versus VEH-VEH group (latency) ([3]; scopolamine 1.2 mg/kg i.p., p<0.05): differed significantly from the VEH--VEH group (p<0.05)
- impairment of acquisition of the water maze task ([3]; scopolamine, dose-dependent): dose-dependently impairs acquisition of the water maze task

Continued, in another order:

- pKi [1]: 5.31
Compound: CCCn1c(=O)c2nc(C(C)c3ccccc3)[nH]c2n(CCC)c1=O (racemic) [3,7-dihydro-8-(1-phenylethyl)-1,3-dipropyl-1H-purine-2,6-dione]

- pKi [1]: 5.91
Compound: CCCn1c(=O)c2nc(C(CC)Cc3ccccc3)[nH]c2n(CCC)c1=O (racemic) [3,7-dihydro-8-[1-(phenylmethyl)propyl]-1,3-dipropyl-1H-purine-2,6-dione]

- pKi [1]: 4.89
Compound: CCCn1c(=O)c2nc(C(CO)Cc3ccccc3)[nH]c2n(CCC)c1=O (racemic) [3,7-dihydro-8-[l-(hydroxymethyl)-2-phenylethyl]-1,3-dipropyl-1H-purine-2,6-dione]

- effect on Type III phosphodiesterase activity [6]: little effect
- effect on Type IV phosphodiesterase activity [7]: little effect
Compound: CCCn1c(=O)c2[nH]c([C@H](C)Cc3ccccc3)nc2n(CCC)c1=O [3,7-Dihydro-8-[(R)-1-methyl-2-phenylethyl]-1,3-dipropyl-1H-purine-2,6-dione]
- reversal of A1 receptor mediated decrease in heart rate produced by adenosine [8]: completely reversed
- effect on contraction produced by N6-cyclohexyl-adenosine [9]: very little effect
- difference from VEH-VEH group (latency) ([3]; 25 mg/kg i.p. plus scopolamine […]): did not differ significantly from the VEH--VEH group
- reversal of scopolamine-induced impairment of water maze learning ([3]; 25 mg/kg i.p., scopolamine […]): partially reversed
- effect on scopolamine-induced learning impairment [3]: significantly antagonized
- synaptic transmission in the hippocampal slice [4]: enhanced synaptic transmission
- LTP stabilized level following tetanus ([4]; 5 μM): 216%
- population spike before and after induction of LTP [4]: increased the basal population spike before and after induction of LTP
- time course of LTP following tetanus [4]: rose sharply and remained stable throughout the observation period

- pKi [1]: 5.37
Compound: CCCn1c(=O)c2nc([C@H](C)c3ccccc3)[nH]c2n(CCC)c1=O [3,7-Dihydro-8-[(R)-1-phenylethyl]-1,3-dipropyl-1H-purine-2,6-dione]

- pKi [1]: 4.89
Compound: CCCn1c(=O)c2nc([C@@H](C)c3ccccc3)[nH]c2n(CCC)c1=O [3,7-Dihydro-8-[(S)-1-phenylethyl]-1,3-dipropyl-1H-purine-2,6-dione]
